Data: patent US8815875B2 (Merck Sharp & Dohme Corp., priority 2008, dated 2014)

Key:
[1] = molecular target: FABP5 (Homo sapiens, UniProt Q01469); assay: TdCD (Temperature-dependent Circular Dichroism) assay, FABP5; type: binding; conditions: T=20° C.; compounds tested at 50 μM and 25 μM
Source text: [formula] (see Brandts et al and Mayhood et al, shown above) where ΔHL (T) is the van't Hoff enthalpy of ligand binding at temperature T and ΔCpL is the heat capacity upon ligand binding. For simplicity, the ΔCpL and ΔHL (T) were set to zero and −7 kcal/mol respectively. […] TdCD (Temperature-dependent Circular Dichroism) Assay for FABP3/4/5
JASCO 810 spectropolarimeter was used to measure Circular Dichroism (CD) spectra and temperature-dependent protein unfolding profiles. The instrument is equipped with a 6-cell piezoelectric temperature controller. Ellipticity was monitored at 226 nm as a function of temperature with a 1 mm path length cell. The scan rate was 1° C./min with a 4 s response time and 30 s equilibration between measurements.
10 mM stocks of individual compounds were made in 100% DMSO. […] DMSO was added to protein-alone (apo) samples to 1% to compensate for DMSO amounts in protein+ligand samples.
Briefly, the To (midpoint of unfolding for the unliganded protein) was calculated from best fit of the unfolding data to the equation below:
[formula] Where, Yobs is the observed ellipticity value at any temperature T, Yn and Yu are the predicted ellipticity values for fully folded and unfolded species, respectively, mn and mu are slope correction for changes in Yn and Yu with respect to changes in temperature. T0 is the midpoint temperature at which the unliganded protein unfolds and ΔHu and ΔCpu are the heat of unfolding and heat capacity of unfolding, respectively for the unliganded species.
In presence of ligand, the midpoint temperature (Tm) defines where the equilibrium concentrations of unfolded and folded species are equal. Incorporation of the unliganded free energy of binding and subsequent thermodynamic substitution yielded the binding constant of the ligand at the Tm value of unfolding:
[formula] where, T0 is the midpoint of unfolding for unliganded protein and Tm is the midpoint of unfolding in presence of ligand. [LTm] is free ligand at Tm.
Based on estimates for enthalpy of binding, ΔHL (estimated to be −7 kcal/mol) and ligand binding heat capacity ΔCpL (set to be zero), the ligand binding association constant (KL) at temperature T=20° C. were calculated as below.

[2] = molecular target: FABP4 (Homo sapiens, UniProt P15090); assay: TdF (Temperature Dependence Fluorescence) assay, thermal shift, FABP4; type: binding
Sequence of FABP4 (P15090 whole entry, species assumed): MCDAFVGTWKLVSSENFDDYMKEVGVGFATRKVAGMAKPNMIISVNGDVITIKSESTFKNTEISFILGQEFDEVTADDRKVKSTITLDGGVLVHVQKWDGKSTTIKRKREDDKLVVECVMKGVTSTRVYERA
Method in brief: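 Binding measured as ΔTm versus protein alone; binding constants derived by nonlinear fitting with ΔHL set to −7 kcal/mol and ΔCpL to zero.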

Sequence of FABP5 (Q01469 whole entry, species assumed): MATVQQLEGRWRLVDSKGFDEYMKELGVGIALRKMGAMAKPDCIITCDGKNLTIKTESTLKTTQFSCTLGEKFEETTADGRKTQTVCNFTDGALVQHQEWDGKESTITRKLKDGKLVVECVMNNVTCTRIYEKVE

Kd [1] [nM] | FABP4 TdF Kd [2] | Kd [2] [nM] | Compound
< 500 | B (0.5 ≦ B < 0.001 μM) |  | O=c1cc(COc2csc(C(F)(F)F)c2)[nH]c2nc(-c3ccccc3)nn12 [1-5]
> 500 | B (0.5 ≦ B < 0.001 μM) |  | O=c1cc(CN2CCc3c(Br)cccc32)[nH]c2nc(-c3ccccc3)nn12 [1-17]
< 500 | B (0.5 ≦ B < 0.001 μM) |  | CC1(C)CCCC(OCc2cc(=O)n3nc(-c4ccccc4)nc3[nH]2)C1 (stereo not shown) [1-152]
> 500 | B (0.5 ≦ B < 0.001 μM) |  | O=c1cc(CN2CCc3c(Cl)cccc32)[nH]c2nc(-c3ccccc3)nn12 [6-3]
> 500 | B (0.5 ≦ B < 0.001 μM) |  | Cc1c(Cl)cccc1N(C)Cc1cc(=O)n2nc(-c3ccccc3)nc2[nH]1 [6-4]
< 500 | B (0.5 ≦ B < 0.001 μM) |  | O=c1cc(COc2cccc(Cl)c2C2CC2)[nH]c2nc(-c3ccccc3)nn12 [20-2]
< 500 |  |  | O=c1c(Cl)c(COc2cccc(Cl)c2C2CC2)[nH]c2nc(-c3ccccc3)nn12 [24-1]
< 500 | B (0.5 ≦ B < 0.001 μM) |  | O=c1cc(COc2cccc(Cl)c2C2CCC2)[nH]c2nc(-c3ccccc3)nn12 [26-3]
 | B (0.5 ≦ B < 0.001 μM) |  | CC1(C(=O)Nc2c(Cl)cccc2OCc2cc(=O)n3nc(-c4ccccc4)nc3[nH]2)CC1 [49-5]
 | B (0.5 ≦ B < 0.001 μM) |  | O=C(CC1CC1)Nc1c(Cl)cccc1OCc1cc(=O)n2nc(-c3ccccc3)nc2[nH]1 [49-6]
 | B (0.5 ≦ B < 0.001 μM) |  | CN(C(=O)C1(OCc2[nH]c3nc(-c4ccccc4)nn3c(=O)c2Cl)CCCCC1)C1CCCCC1 [50-4]
 |  | ≤ 1 | O=C(NCC1(CO)CCCC1)C1(OCc2[nH]c3nc(-c4ccccc4)nn3c(=O)c2Cl)CCCCC1 [50-5]
 | B (0.5 ≦ B < 0.001 μM) |  | O=C(NCC1(CO)CCC1)C1(OCc2[nH]c3nc(-c4ccccc4)nn3c(=O)c2Cl)CCCCC1 [50-6]
 |  | > 500 | O=c1nc(SCc2cccc(Cl)c2Cl)[nH]c2nc(-c3ccccc3)nn12 [51-4]
 |  | ≤ 1 | O=c1cc(CSc2cccc(Cl)c2C2CC2)[nH]c2nc(-c3ccccc3)nn12 [52-4]
 |  | ≤ 1 | O=c1cc(CSc2cccc(Cl)c2C2CCC2)[nH]c2nc(-c3ccccc3)nn12 [52-5]
 |  | > 500 | O=C(O)c1c(Cl)cccc1OCc1cc(=O)n2nc(C(F)(F)F)nc2[nH]1 [53-3]
 |  | > 500 | O=C(O)C1(OCc2cc(=O)n3nc(C(F)(F)F)nc3[nH]2)CCCCC1 [54-1]
